From paper PMC12736008, “New Dimethylpyridine-3-Carboxamide Derivatives as MMP-13 Inhibitors with Anticancer Activity” (Molecules, 2025) come the findings set out here.

One data set is described as follows: MTT assay, NHDF. Particulars: human, NHDF cells (normal human dermal fibroblasts), 0.004 mM to 0.5 mM. The format is cell-based, human. The source says:
As mentioned earlier, MMP-13 is overexpressed and functionally significant in various cancers, including melanoma and colorectal carcinoma. For instance, high MMP-13 levels have been correlated with metastasis and poor survival in melanoma patients. In colorectal cancer, elevated MMP-13 activity has been observed in tumors compared to normal mucosa, and its expression is associated with a worse prognosis. Based on computational studies, four out of the eleven designed compounds showing the most promising predicted activity against MMP-13 were selected for biological evaluation. For the MTT assay, NHDF cells were used as the healthy reference cell line, while A375 (melanoma) and HT-29 (colorectal adenocarcinoma cancer) cell lines were chosen as cancer models.
Experiments were conducted using two cancer cell lines and, as a control, a normal human dermal fibroblasts (NHDF; ATCC PCS-201-012). The A375 cell line (human melanoma, ATCC CRL-1619), and HT-29 cell line (human colorectal adenocarcinoma, ATCC HTB-38) were cultured in DMEM (Dulbecco’s Modified Eagle Medium, Institute of Immunology and Experimental Therapy (IITD), Wrocław, Poland) supplemented with 1% antibiotics (10 U/mL penicillin and 10 µg/mL streptomycin, Sigma-Aldrich, St Louis, MO, USA), 1% glutamine (Sigma-Aldrich, St Louis, MO, USA) and 10% fetal bovine serum (FBS, Gibco, Grand Island, NY, USA). For NHDF cultures, α-MEM (α-Minimum Essentials Medium, Institute of Immunology and Experimental Therapy (IITD), Poland) was used with the same supplement combination as for the cancer cell lines. All cells were maintained in a humidified incubator (INCO 105, Memmert GmbH, Schwabach, Germany) at 37 °C with 5% CO2 and 95% humidity. Cells were passaged routinely by trypsinization (twice a week). For the MTT (3-(4,5-simethylthiazol-2,5-diphenyltetrazolinum bromide), Sigma, St. Louis, MO, USA) assay, cells were used after 2–4 passages, when they reached approximately 80% confluence.
All tested compounds were dissolved in DMSO to obtain stock solutions with a final concentration of 50 mM (3a, 3b, 3e), 40 mM (3f, 3g, 3i, 3j), and 35 mM (3h, 3k). […] In the next step, 10 µL of each stock solution was added to 990 µL of supplemented medium.
The MTT assay was performed in 96-well plates, with a seeding density of 1 × 10^4 cells per well. All cell lines were incubated for 24 h in their respective media: α-MEM for (NHDF cells) and DMEM for (A375 and HT-29) cells. After incubation, the medium was removed and replaced with fresh medium containing the tested compounds at concentrations ranging from 0.004 mM to 0.5 mM. […] Absorbance was measured spectrophotometrically at a wavelength of 570 nm using a BioTek SYNERGY H1 microplate reader (Agilent, Santa Clara, CA, USA).
On the technique in general: Formazan colour is commonly taken as a measure of viable cells.

The target in another data set is T1, MMP-13 (Homo sapiens, UniProt P45452).
T1 construct: purchased Abcam ab139451
Put plainly: MMP-13 inhibitor screening assay kit (fluorometric). The format is biochemical. Particulars: single-point screening; tested compounds 1.8 to 4.6 µM. The protocol:
(§1) The inhibitory activity of the designed compounds against MMP-13 was evaluated using a commercial fluorometric MMP-13 inhibitor assay kit (Abcam, Cambridge, UK), following the manufacturer’s protocol. Solutions of the tested compounds were prepared at concentrations ranging from 1.8 to 4.6 µM. N-isobutyl-N-(4-methoxyphenylsulfonyl)glycyl hydroxamic acid (NNGH), a broad-spectrum inhibitor of matrix metalloproteinases, was used as positive control. […] In parallel, MMP-8 inhibition assays were also conducted using the same concentrations of compounds 3b, 3c, 3d, and 3g.
(§2) It should be emphasized that these assays were performed as single-point screening experiments, optimized for rapid qualitative assessment rather than full kinetic characterization. Consequently, the observed differences in activity between MMP-13 and MMP-8 are indicative trends supporting the selectivity predicted by computational studies, including docking, molecular dynamics simulations, and binding free energy calculations, rather than providing definitive quantitative evidence.
(§3) The inhibitory activity of the tested compounds was evaluated using the MMP-13 inhibitor screening assay kit (fluorometric) (Abcam, ab139451). The assay performed according to the manufacturer’s instructions. The designed compounds were tested at concentrations ranging from 1.8 to 4.6 µM, to determine their inhibitory activity. […]

The next data set has as its target T2, MMP-8 (Homo sapiens, UniProt P22894).
T2 construct: purchased Abcam ab139453
The data set is described as follows: MMP-8 inhibitory screening assay kit (fluorometric). As to conditions: single-point screening; same concentrations, 1.8 to 4.6 µM. Type of data set: biochemical. Here is the method:
as §1, §2, §3

Molecules are shown by their SMILES. A value given as a limit tells only on which side of the number the result lay.

T2 sequence (P22894 101-467): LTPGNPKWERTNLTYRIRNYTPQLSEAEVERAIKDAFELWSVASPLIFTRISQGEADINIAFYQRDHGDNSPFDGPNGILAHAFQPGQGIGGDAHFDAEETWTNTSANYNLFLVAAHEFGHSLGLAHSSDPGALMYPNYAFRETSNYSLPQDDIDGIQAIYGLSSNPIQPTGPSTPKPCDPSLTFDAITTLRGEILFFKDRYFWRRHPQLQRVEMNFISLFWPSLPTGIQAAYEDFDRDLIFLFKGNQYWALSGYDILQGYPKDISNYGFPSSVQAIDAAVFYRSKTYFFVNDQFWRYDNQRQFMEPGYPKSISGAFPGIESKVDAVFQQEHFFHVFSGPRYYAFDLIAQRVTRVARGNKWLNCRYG

Regarding `Cc1cc(C)c(C(=O)NCC(=O)NCc2ccccc2Cl)c(S)n1` [Compound 3d, N-{2-[(2-chlorobenzyl)amino]-2-oxoethyl}-4,6-dimethyl-2-sulfanylpyridine-3-carboxamide], the viability at 24 h in the data set “MTT assay, NHDF” is greater than 63%. As for `Cc1cc(C)c(C(=O)NCC(=O)NCc2ccccc2)c(S)n1` [Compound 3g, 4,6-dimethyl-N-[2-(benzylamino)-2-oxoethyl]-2-sulfanylpyridine-3-carboxamide], the MMP-13 activity inhibition result at MMP-13 is reported as “most pronounced inhibitory effect”. Further, the MMP-8 activity inhibition entry at MMP-8 is given as “slight inhibitory activity”.

The term viability denotes a read-out of living cells in per cent, often relative to untreated cells.
